Measured values reported in article PMC13070491, “Single-nucleus transcriptomics, pharmacokinetics, and pharmacodynamics of CDK4/6 and mTOR inhibition in a Phase 0/1 trial of recurrent high-grade glioma” (Neuro-Oncology, 2025).

Assays:
mTOR = conditions: threshold basis for Phase 1 expansion; no reference given; read-out: biochemical IC50; cited from earlier work
p4EBP1 = experiment: IHC of tumor tissue, p4EBP1 positive cells; assay type: in vivo, human; conditions: 5 days ribociclib + everolimus; paired t-test P > .05
Procedure: Everolimus pharmacodynamic biomarkers were assessed using IHC with the following antibodies: anti-p4EBP1 (Cell Signaling Technology; #2855, 1:500); anti-pS6 ribosomal protein (Cell Signaling -Technology; #4858, 1:100). IHC staining was performed using the BOND RX automated system (Leica Biosystems) as previously described.[8] Stained slides were imaged on a Leica Versa microscope and analyzed with Aperio Image software. Percentage of stain-positive cells was quantified from at least 6 randomly selected regions of interest within the tumor as assessed by a board-certified neuropathologist.

[1] = tested on: malignant cells of recurrent IDH-wildtype glioblastoma; experiment: Single nucleus RNA sequencing of tumor samples, malignant cell state proportions vs standard-of-care cohorts; assay type: in vivo, human
From the text: Count matrices were loaded into R using Seurat's (version 4.3.0) Read10X function. Cells were filtered based on the following quality control criteria: number of genes detected greater than 500 and fewer than 10 000; maximum percentage of mitochondrial genes of 5%. DoubletFinder was used to identify potential nuclei doublets, which were filtered out.[17] The expression data were processed by normalization, scaling, PCA based on genes differentially expressed across brain cell types, Harmony batch correction for sample preparation batch,[18] Uniform Manifold Approximation and Projection (UMAP), and clustering using the Louvain algorithm, and resolution set to 0.6. Cell type annotation was based on gene expression markers for each cluster and confirmed via mapping to a normal reference brain atlas (Azimuth). […] (https://github.com/broadinstitute/[…]) was used to confirm malignant status based on the presence of copy number alterations. […] HMM-predicted copy number alteration levels were extracted to define malignant and nonmalignant cells based on the following approach. […] Putative malignant cells not meeting this threshold were labelled as unresolved and excluded. Cells assigned to a nonmalignant gene expression cluster with 25% of chromosome 7 inferred gain and/or 25% of chromosome 10 inferred loss were labelled as unresolved and excluded. Samples with fewer than 25 malignant cells were excluded from malignant state analysis. […] Cell cycle status was assigned independent of […] cell state. Cells were classified as AC-like, etc., along with its cell cycle status-cycling or not.

Structure (SMILES) | IC50 (mTOR) [nM] | mTOR pathway activity as quantified by p4EBP1, surgical specimen vs archival tissue (p4EBP1) | proportion of malignant cells actively cycling vs standard treatment cohorts (snRNAseq) ([1]; n = 17 ribociclib-exposed vs CARE n = 57 and Wang et al. n = 31, P = 3.2E-03 and P = 2.0E-04) | neural progenitor-like (NPC-like) state vs standard treatment cohorts (snRNAseq) ([1]; n = 17 ribociclib-exposed vs CARE n = 57 and Wang et al. n = 31, P = 5.8E-05, P = 1.8E-03) | fraction of NPC-like malignant cells, Phase 2 (104 days) vs Phase 0 (5-day) sample of one patient ([1]; ribociclib monotherapy, single case, snRNAseq)
CO[C@H]1C[C@@H]2CC[C@@H](C)[C@@](O)(O2)C(=O)C(=O)N2CCCC[C@H]2C(=O)O[C@H]([C@H](C)C[C@@H]2CC[C@@H](OCCO)[C@H](OC)C2)CC(=O)[C@H](C)/C=C(\C)[C@@H](O)[C@@H](OC)C(=O)[C@H](C)C[C@H](C)/C=C/C=C/C=C/1C [Everolimus, everolimus] | 2 |  |  |  | 
CN(C)C(=O)c1cc2cnc(Nc3ccc(N4CCNCC4)cn3)nc2n1C1CCCC1 [Ribociclib, ribociclib] |  | elevated but not significantly different | lower proportion | decrease | reduced fraction
